Assay results: patent US6537803B1, “Amino acid transporters and uses” (Oregon Health Sciences University, priority 1993, dated 2003)
Read-outs that look alike come from different tables or passages of the source. Residues, ends and D or L forms follow the SMILES beside them.

Tests used:
Type in all cases: cell-based
human EAAT1 = molecular target: T1, human EAAT1 (Homo sapiens, UniProt P43003); experiment: inhibition of [3H]-L-glutamate uptake in COS-7 cells expressing EAAT1; settings: for inhibition of glutamate uptake (in words), EAAT1: COS cell culture
T1 construct: expressed in transfected cells; host or cells: COS-7 cells, pCMV5 construct, DEAE-dextran transient transfection
T1 sequence (P43003 whole entry): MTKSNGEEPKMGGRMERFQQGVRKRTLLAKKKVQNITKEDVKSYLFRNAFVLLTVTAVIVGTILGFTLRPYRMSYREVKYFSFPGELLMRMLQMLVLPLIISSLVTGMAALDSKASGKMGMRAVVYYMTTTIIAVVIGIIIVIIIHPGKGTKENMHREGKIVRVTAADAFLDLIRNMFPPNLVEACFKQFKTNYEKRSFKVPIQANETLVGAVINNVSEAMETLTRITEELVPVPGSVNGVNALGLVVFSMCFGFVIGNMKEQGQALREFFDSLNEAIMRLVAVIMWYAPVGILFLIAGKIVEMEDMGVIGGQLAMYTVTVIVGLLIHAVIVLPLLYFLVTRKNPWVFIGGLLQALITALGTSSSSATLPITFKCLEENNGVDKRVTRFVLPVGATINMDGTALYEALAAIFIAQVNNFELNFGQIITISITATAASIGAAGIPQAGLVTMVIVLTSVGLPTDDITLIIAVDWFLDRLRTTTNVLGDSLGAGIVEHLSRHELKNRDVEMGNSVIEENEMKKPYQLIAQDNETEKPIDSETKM
From the text: (§1) DNA fragments comprising the coding sequences of the novel glutamate transporter genes of the invention were excised from the POTV constructs described in Example 3 and subcloned into the mammalian expression plasmid pCMV5 (Anderson et al., 1989, J. Biol. Chem. 264: 8222-8229). These mammalian expression constructs were used for transient expression assays of glutamate transporter protein function after transfection of each of these constructs into COS-7 cells (Gluzman, 1981, Cell 23: 175-182).
(§2) Each of the pCMV5 constructs corresponding to EAAT1, EAAT2 and EAAT3 were introduced into COS-7 cells by DEAE-dextran facilitated transfection (see Sambrook et al., ibid.). Two day following transfection, the transfected cells were washed three times in phosphate-buffered saline (PBS) and then incubated with a mixture of radiolabeled amino acid ([^3H]-L-glutamate or [^3H]-D-aspartate; Dupont-NEN) and non-radiolabeled amino acid for 10 min. After incubation, the cells were washed three times with ice-cold PBS, solubilized with a solution of 0.1% sodium dodecyl sulfate (SDS) and the amount of radioactivity associated with the cells determined using standard liquid scintillation counting methods.
(§3) COS-7 cell cultures transformed with pCMVS-human glutamate transporter constructs as described in Example 4 were used to characterize the pharmacological properties of each of these transporter proteins relative to a variety of known glutamate transporter inhibitors. These assays were performed essentially as described in Example 4, with the exception that varying amounts of each of a number of known inhibitor compounds were included in the incubations.
(§4) In these experiments, uptake of 1 μM of […] was determined in the presence of the indicated amounts of each of the inhibitors.

human EAAT2 = molecular target: T2, human EAAT2 (Homo sapiens, UniProt P43004); experiment: inhibition of [3H]-L-glutamate uptake in COS-7 cells expressing EAAT2; settings: for inhibition of glutamate uptake (in words), EAAT2: COS cell culture
T2 construct: expressed in transfected cells; host or cells: COS-7 cells, pCMV5 construct, DEAE-dextran transient transfection
T2 sequence (P43004 whole entry): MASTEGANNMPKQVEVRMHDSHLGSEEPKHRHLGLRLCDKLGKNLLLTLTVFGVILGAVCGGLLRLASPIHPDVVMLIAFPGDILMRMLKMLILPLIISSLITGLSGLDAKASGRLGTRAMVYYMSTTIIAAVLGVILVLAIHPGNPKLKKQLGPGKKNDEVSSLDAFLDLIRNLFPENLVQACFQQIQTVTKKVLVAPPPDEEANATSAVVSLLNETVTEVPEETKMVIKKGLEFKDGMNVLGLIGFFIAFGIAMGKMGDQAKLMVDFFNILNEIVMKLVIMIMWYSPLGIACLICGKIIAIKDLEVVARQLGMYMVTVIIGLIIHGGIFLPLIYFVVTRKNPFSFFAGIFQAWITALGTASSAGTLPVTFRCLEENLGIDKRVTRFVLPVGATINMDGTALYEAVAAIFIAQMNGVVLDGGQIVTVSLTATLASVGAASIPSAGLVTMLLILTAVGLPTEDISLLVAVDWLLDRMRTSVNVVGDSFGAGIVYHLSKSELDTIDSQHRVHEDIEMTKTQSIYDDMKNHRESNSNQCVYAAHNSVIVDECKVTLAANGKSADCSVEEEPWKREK
From the text: as §1, §2, §3, §4

human EAAT3 = molecular target: T3, human EAAT3 (Homo sapiens, UniProt P43005); experiment: inhibition of [3H]-L-glutamate uptake in COS-7 cells expressing EAAT3; settings: for inhibition of glutamate uptake (in words), EAAT3: COS cell culture
T3 construct: isolation of Clone GT11B containing a full-length open reading frame encoding EAAT3; expressed in transfected cells; host or cells: COS-7 cells, pCMV5 construct, DEAE-dextran transient transfection
T3 sequence (P43005 1-524): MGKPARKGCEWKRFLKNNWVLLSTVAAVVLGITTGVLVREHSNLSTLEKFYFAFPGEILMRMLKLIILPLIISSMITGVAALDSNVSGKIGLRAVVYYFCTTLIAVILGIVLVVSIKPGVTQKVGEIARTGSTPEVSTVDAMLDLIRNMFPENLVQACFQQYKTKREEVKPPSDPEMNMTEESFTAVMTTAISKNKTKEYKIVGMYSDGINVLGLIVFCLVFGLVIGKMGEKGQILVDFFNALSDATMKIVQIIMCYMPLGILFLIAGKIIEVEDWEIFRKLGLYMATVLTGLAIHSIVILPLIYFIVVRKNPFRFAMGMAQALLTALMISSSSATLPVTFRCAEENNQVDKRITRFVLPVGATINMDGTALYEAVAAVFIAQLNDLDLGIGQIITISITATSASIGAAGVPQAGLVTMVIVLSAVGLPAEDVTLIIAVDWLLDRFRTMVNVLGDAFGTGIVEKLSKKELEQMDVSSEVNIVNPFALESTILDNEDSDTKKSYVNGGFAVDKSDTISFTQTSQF
From the text: as §1, §2, §3, §4

[1] = molecular target: T4, human ASCT1 neutral amino acid transporter (Homo sapiens, UniProt P43007); experiment: amino acid-induced inward current in voltage-clamped ASCT1-injected Xenopus oocytes
T4 construct: expressed in transfected cells; host or cells: Xenopus laevis oocytes injected with in vitro transcribed RNA (pOTV vector)
T4 sequence (P43007 1-532): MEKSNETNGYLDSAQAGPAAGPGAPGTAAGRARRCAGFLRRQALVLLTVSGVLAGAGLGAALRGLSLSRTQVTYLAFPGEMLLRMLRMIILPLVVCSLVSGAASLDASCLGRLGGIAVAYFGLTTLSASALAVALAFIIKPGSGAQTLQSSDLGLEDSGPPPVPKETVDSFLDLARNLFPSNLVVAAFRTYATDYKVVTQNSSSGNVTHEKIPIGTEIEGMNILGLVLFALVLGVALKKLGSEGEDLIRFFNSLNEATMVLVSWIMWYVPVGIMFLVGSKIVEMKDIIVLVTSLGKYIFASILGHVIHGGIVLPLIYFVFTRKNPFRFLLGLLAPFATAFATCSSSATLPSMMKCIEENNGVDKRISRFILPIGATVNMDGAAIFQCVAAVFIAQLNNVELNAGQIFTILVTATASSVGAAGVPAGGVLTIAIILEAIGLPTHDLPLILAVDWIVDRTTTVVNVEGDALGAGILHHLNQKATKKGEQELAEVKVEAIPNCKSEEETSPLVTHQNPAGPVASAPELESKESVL
From the text: (§5) Following the PCR, the product of the amplification reaction was purified using standard techniques (Saiki et al., 1988, Science 239: 487-491). The DNA then digested with the restriction enzymes KpnI and XbaI and then cloned into the polylinker of an oocyte transcription vector (POTV; see Wang el al., 1991, Nature 352: 729-731) that had been digested with KpnI and XbaI. Synthetic RNA was then transcribed in vitro from this clone using the method of Kavanaugh et al. (1992, J. Biol. Chem. 267: 22007-22009) employing bacteriophage T7 RNA polymerase (New England Biolabs, Beverly, Mass.). 20-50 nL of ASCT1 RNA (at a concentration of about 400 μg/mL) was injected into defolliculated stage V-VI Xenopus oocytes excised from female Xenopus laevis anesthetized by immersion in 3-aminobenzoic acid for 60 min. Excised oocytes were treated with collagenase II (Sigma Chemical Co., St. Louis, Mo.) in calcium-free Barth's saline solution [comprising 88 mM NaCl, 1 mM KCl, 2.4 mM NaHCO3, 0.82 mM MgSO4, 7.5 mM Tris-HCl (pH 7.6), 50 U/mL Nystatin (Sigma) and 0.1 mg/mL gentamycin (Sigma)] for 60 min., and then incubated overnight at 15° C. in 50% Leibowitz's L-15 media (Grand Island Biological Co. (GIBCO), Long Island, N.Y.). After overnight incubation the oocytes were mechanically defolliculated and then were injected with ASCT-1 RNA and incubated at 19° C. for 48 h (see Kim el al., 1991, Nature 352: 725-728 for further details of Xenopus oocyte preparation and microinjection).
(§6) Amino acid transport in such oocytes was assayed using [^3H] alanine, [^3H] serine or [^35S] cysteine (obtained from New England Nuclear, Boston, Mass.). Briefly, microinjected oocytes were […] at −60 mV using a Dagan TEV-200 clamp amplifier with an Axon Instruments (Foster City, Calif.) TL-1 A/D interface controlled by pCLAMP software (Axon Instruments) (see Kavanaugh et al., 1992, J. Biol. Chem. 267: 22007-22009 for a detailed review of this methodology) and continuously superfused with ND-96 buffer (consisting of 96 mM NaCl/2 mM KCl/1.8 mM CaCl2/1 mM MgCl2/5 mM HEPES, pH 7.5). For transport measurements, this solution was changed to a solution containing varying concentrations of the radiolabeled amino acids in ND-96 buffer.
More detailed analyses of ithe kinetics of amino acid influx were performed by least squares linear regression analysis of induced inward current ([I]) plotted as a function of substrate amino acid concentration ([S]), using the equation shown in the legend of Table II.

[2] = molecular target: T4, human ASCT1 neutral amino acid transporter; experiment: radiolabeled amino acid uptake in ASCT1 RNA-injected Xenopus oocytes; settings: competitor 10 mM; [3H] alanine 100 μM
From the text: as §5, §6

[3] = read-out: Ki, glutamate uptake inhibition constant, EAAT1
[4] = read-out: Ki, glutamate uptake inhibition constant, EAAT2
[5] = read-out: Ki, glutamate uptake inhibition constant, EAAT3
[6] = much higher concentrations (about 1 mM)

N[C@@H](CSS(=O)(=O)O)C(=O)O [S-sulfo-L-cysteine]
inhibition of glutamate uptake (in words), EAAT1 (human EAAT1): ineffective | inhibition of glutamate uptake (in words), EAAT2 (human EAAT2): ineffective | inhibition of glutamate uptake (in words), EAAT3 (human EAAT3): ineffective

N[C@@H](CS(=O)O)C(=O)O [L-cysteine sulfinic acid]
Ki (human EAAT1; [3]): 14 ± 7 µM | Ki (human EAAT2; [4]): 6 ± 1 µM | Ki (human EAAT3; [5]): 17 ± 2 µM

NCC(=O)O [glycine]
effect on membrane current of ASCT1-injected oocytes [1, 6]: had no effect

O=C1CC[C@@H](C(=O)O)N1 [L-pyroglutamicacid]
inhibition of glutamate uptake (in words), EAAT1 (human EAAT1): ineffective | inhibition of glutamate uptake (in words), EAAT2 (human EAAT2): ineffective | inhibition of glutamate uptake (in words), EAAT3 (human EAAT3): ineffective

NC(=O)CC[C@H](N)C(=O)O [L-glutamine]
effect on membrane current of ASCT1-injected oocytes [1, 6]: had no effect

CN[C@H](CC(=O)O)C(=O)O [N-methyl-D-aspartate]
inhibition of glutamate uptake (in words), EAAT1 (human EAAT1): ineffective | inhibition of glutamate uptake (in words), EAAT2 (human EAAT2): ineffective | inhibition of glutamate uptake (in words), EAAT3 (human EAAT3): ineffective

N[C@@H](CS(=O)(=O)O)C(=O)O [L-cysteate]
Ki (human EAAT1; uptake of 1 μM [3H]-L-glutamate, [S] << Km, Ki does not differ significantly from measured IC50, read-out: Ki, glutamate uptake inhibition constant, EAAT1): 10 ± 3 µM | Ki (human EAAT2; uptake of 1 μM [3H]-L-glutamate, [S] << Km, Ki does not differ significantly from measured IC50, read-out: Ki, glutamate uptake inhibition constant, EAAT2): 10 ± 2 µM | Ki (human EAAT3; uptake of 1 μM [3H]-L-glutamate, [S] << Km, Ki does not differ significantly from measured IC50, read-out: Ki, glutamate uptake inhibition constant, EAAT3): 19 ± 9 µM

N[C@@H](COS(=O)(=O)O)C(=O)O [SOS, L-serine-O-sulfate]
Ki (human EAAT1): 107 ± 8 µM | Ki (human EAAT2): 1160 ± 275 µM | Ki (human EAAT3): 150 ± 52 µM

N[C@@H](CC(=O)NO)C(=O)O [L-aspartate-β-hydroxymate]
Ki (human EAAT1; [3]): 369 ± 70 µM | Ki (human EAAT2; [4]): 184 ± 27 µM | Ki (human EAAT3; [5]): 133 ± 34 µM

CC(=O)N[C@@H](CC(=O)O)C(=O)N[C@@H](CCC(=O)O)C(=O)O [N-acetyl aspartylglutamate] (Ac-Asp-Glu-OH)
inhibition of glutamate uptake (in words), EAAT1 (human EAAT1): ineffective | inhibition of glutamate uptake (in words), EAAT2 (human EAAT2): ineffective | inhibition of glutamate uptake (in words), EAAT3 (human EAAT3): ineffective

NC(CCCC(=O)O)C(=O)O (stereo not drawn) [α-aminoadipate]
inhibition of glutamate uptake (in words), EAAT1 (human EAAT1): only low potency | inhibition of glutamate uptake (in words), EAAT2 (human EAAT2): only low potency | inhibition of glutamate uptake (in words), EAAT3 (human EAAT3): only low potency

CC(C)[C@H]1CN[C@H](C(=O)O)[C@H]1CC(=O)O [DHK, dihydrokainate]
Ki (human EAAT1): > 1000 µM | Ki (human EAAT2): 23 ± 6 µM | Ki (human EAAT3): > 1000 µM

CNC(C)(C)C(=O)O [MAIB, 2-methylaminoisobutyric acid]
effect on the rate of uptake of [3H] alanine (competition) [2]: had no effect | effect on membrane current of ASCT1-injected oocytes ([1]; 1 mM): had no effect

C[C@@H](N)C(=O)O [D-alanine]
response relative to the response produced by L-alanine ([1]; stereospecificity): 12±3%

NCCCC[C@H](N)C(=O)O [L-lysine]
effect on membrane current of ASCT1-injected oocytes [1, 6]: had no effect
